PMC6199309, “A therapeutic approach to pantothenate kinase associated neurodegeneration” (Nature Communications, 2018)
Values after ≈ are worked out from the molar mass of the structure shown. “Also recorded” adds a separate entry of the source.

Key:
TGFBR2 = biological target: T1, TGFBR2 (Homo sapiens, UniProt P37173); experiment: KINOMEscan; assay type: binding; conditions: read-out: %Ctrl @ 10000nM
T1 construct: purchased DiscoverX KINOMEscan

HASPIN = biological target: T2, HASPIN (Homo sapiens, UniProt Q8TF76); experiment: KINOMEscan; assay type: binding; conditions: read-out: %Ctrl @ 10000nM
T2 construct: purchased DiscoverX KINOMEscan

NLK = biological target: T3, NLK (Homo sapiens, UniProt Q9UBE8); experiment: KINOMEscan; assay type: binding; conditions: read-out: %Ctrl @ 10000nM
T3 construct: purchased DiscoverX KINOMEscan
T3 sequence (Q9UBE8 whole entry): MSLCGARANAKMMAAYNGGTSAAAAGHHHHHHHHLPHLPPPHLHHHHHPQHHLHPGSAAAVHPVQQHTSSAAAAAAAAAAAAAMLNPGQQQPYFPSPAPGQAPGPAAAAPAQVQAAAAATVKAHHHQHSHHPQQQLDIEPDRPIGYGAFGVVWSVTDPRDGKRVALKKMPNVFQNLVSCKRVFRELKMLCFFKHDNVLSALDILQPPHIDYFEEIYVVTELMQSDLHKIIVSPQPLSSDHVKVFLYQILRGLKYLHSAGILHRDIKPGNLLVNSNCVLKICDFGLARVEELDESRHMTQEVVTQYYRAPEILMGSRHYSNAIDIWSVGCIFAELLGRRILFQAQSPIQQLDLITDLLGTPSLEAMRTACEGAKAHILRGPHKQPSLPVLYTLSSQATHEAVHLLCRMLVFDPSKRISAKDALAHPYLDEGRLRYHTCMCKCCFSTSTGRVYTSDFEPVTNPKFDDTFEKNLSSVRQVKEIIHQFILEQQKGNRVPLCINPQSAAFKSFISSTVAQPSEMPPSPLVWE

MELK = biological target: T4, MELK (Homo sapiens, UniProt Q14680); experiment: KINOMEscan; assay type: binding; conditions: read-out: %Ctrl @ 10000nM
T4 construct: purchased DiscoverX KINOMEscan

PKAC-alpha = biological target: T5, PKAC-alpha (Homo sapiens, UniProt P17612); experiment: KINOMEscan; assay type: binding; conditions: read-out: %Ctrl @ 10000nM
T5 construct: purchased DiscoverX KINOMEscan

FES = biological target: T6, FES (Homo sapiens, UniProt P07332); experiment: KINOMEscan; assay type: binding; conditions: read-out: %Ctrl @ 10000nM
T6 construct: purchased DiscoverX KINOMEscan

468 human kinases = experiment: KINOMEscan scanMAX panel; assay type: binding
MET(M1250T) = biological target: T7, MET(M1250T) (Homo sapiens, UniProt P08581, M1250T); experiment: KINOMEscan; assay type: binding; conditions: read-out: %Ctrl @ 10000nM
T7 construct: purchased DiscoverX KINOMEscan

ACVR2B = biological target: T8, ACVR2B (Homo sapiens, UniProt Q13705); experiment: KINOMEscan; assay type: binding; conditions: read-out: %Ctrl @ 10000nM
T8 construct: purchased DiscoverX KINOMEscan

IKK-beta = biological target: T9, IKK-beta (Homo sapiens, UniProt O14920); experiment: KINOMEscan; assay type: binding; conditions: read-out: %Ctrl @ 10000nM
T9 construct: purchased DiscoverX KINOMEscan

[1] = biological target: T10, JAK3(JH1domain-catalytic) (Homo sapiens, UniProt P52333); experiment: KINOMEscan; assay type: binding; conditions: read-out: %Ctrl @ 10000nM
T10 construct: JAK3(JH1domain-catalytic); purchased DiscoverX KINOMEscan

ARK5 = biological target: T11, ARK5 (Homo sapiens, UniProt O60285); experiment: KINOMEscan; assay type: binding; conditions: read-out: %Ctrl @ 10000nM
T11 construct: purchased DiscoverX KINOMEscan

SLK = biological target: T12, SLK (Homo sapiens, UniProt Q9H2G2); experiment: KINOMEscan; assay type: binding; conditions: read-out: %Ctrl @ 10000nM
T12 construct: purchased DiscoverX KINOMEscan

CDK4-cyclinD1 = biological target: T13, CDK4-cyclinD1 (Homo sapiens, UniProt P11802); experiment: KINOMEscan; assay type: binding; conditions: read-out: %Ctrl @ 10000nM
T13 construct: purchased DiscoverX KINOMEscan

MYLK2 = biological target: T14, MYLK2 (Homo sapiens, UniProt Q9H1R3); experiment: KINOMEscan; assay type: binding; conditions: read-out: %Ctrl @ 10000nM
T14 construct: purchased DiscoverX KINOMEscan

TNK2 = biological target: T15, TNK2 (Homo sapiens, UniProt Q07912); experiment: KINOMEscan; assay type: binding; conditions: read-out: %Ctrl @ 10000nM
T15 construct: purchased DiscoverX KINOMEscan

PKNB(M.tuberculosis) = biological target: T16, PKNB(M.tuberculosis) (Mycobacterium tuberculosis, UniProt P9WI81); experiment: KINOMEscan; assay type: binding; conditions: read-out: %Ctrl @ 10000nM
T16 construct: purchased DiscoverX KINOMEscan

ALK(L1196M) = biological target: T17, ALK(L1196M) (Homo sapiens, UniProt Q9UM73, L1196M); experiment: KINOMEscan; assay type: binding; conditions: read-out: %Ctrl @ 10000nM
T17 construct: purchased DiscoverX KINOMEscan
T17 sequence (Q9UM73 19-1620 L1196M): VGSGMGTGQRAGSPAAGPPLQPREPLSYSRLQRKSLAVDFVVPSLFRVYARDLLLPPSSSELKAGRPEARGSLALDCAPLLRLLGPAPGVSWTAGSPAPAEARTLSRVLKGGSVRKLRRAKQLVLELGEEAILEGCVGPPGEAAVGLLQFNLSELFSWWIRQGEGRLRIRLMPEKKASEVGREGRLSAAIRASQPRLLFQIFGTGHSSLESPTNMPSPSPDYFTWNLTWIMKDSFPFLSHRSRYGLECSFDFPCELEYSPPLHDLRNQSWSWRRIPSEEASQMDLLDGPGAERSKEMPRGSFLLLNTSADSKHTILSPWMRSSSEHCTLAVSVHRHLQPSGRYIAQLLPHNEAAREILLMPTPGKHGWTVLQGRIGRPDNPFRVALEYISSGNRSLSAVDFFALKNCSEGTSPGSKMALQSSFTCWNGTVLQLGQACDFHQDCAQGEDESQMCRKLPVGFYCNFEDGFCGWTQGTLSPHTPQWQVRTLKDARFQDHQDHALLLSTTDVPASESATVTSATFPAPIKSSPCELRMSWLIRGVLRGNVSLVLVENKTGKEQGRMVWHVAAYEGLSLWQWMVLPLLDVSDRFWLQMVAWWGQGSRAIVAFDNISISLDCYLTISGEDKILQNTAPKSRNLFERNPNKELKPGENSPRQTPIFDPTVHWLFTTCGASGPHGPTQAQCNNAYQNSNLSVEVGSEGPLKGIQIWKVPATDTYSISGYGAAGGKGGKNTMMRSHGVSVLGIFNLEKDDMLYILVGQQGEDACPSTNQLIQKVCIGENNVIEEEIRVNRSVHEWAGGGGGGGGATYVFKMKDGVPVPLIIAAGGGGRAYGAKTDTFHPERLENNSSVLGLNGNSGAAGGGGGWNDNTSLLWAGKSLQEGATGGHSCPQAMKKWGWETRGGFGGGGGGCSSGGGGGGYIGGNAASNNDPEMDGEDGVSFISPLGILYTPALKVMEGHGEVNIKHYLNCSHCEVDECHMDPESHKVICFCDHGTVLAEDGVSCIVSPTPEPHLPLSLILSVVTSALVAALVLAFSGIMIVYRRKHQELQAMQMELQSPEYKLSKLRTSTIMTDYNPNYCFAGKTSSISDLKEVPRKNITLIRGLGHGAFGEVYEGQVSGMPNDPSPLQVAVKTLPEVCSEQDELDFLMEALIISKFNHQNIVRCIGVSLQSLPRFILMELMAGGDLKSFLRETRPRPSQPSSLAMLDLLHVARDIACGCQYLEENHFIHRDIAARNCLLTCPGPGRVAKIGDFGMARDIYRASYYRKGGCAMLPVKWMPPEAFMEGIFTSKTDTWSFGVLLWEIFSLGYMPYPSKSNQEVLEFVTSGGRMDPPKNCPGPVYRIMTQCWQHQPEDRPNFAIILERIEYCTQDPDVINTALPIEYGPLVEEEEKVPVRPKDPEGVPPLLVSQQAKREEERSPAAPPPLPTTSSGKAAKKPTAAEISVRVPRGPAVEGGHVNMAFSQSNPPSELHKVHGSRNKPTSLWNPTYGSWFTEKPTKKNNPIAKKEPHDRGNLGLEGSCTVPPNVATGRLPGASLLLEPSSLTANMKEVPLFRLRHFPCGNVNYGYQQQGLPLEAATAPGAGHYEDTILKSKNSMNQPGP

RET = biological target: T18, RET (Homo sapiens, UniProt P07949); experiment: KINOMEscan; assay type: binding; conditions: read-out: %Ctrl @ 10000nM
T18 construct: purchased DiscoverX KINOMEscan

PAK6 = biological target: T19, PAK6 (Homo sapiens, UniProt Q9NQU5); experiment: KINOMEscan; assay type: binding; conditions: read-out: %Ctrl @ 10000nM
T19 construct: purchased DiscoverX KINOMEscan

STK35 = biological target: T20, STK35 (Homo sapiens, UniProt Q8TDR2); experiment: KINOMEscan; assay type: binding; conditions: read-out: %Ctrl @ 10000nM
T20 construct: DNA tag for qPCR (T7 phage fusion or DNA label); purchased DiscoverX KdELECT; host or cells: E. coli BL21-derived (T7 phage) or HEK-293

LRRK2 = biological target: T21, LRRK2 (Homo sapiens, UniProt Q5S007); experiment: KINOMEscan; assay type: binding; conditions: read-out: %Ctrl @ 10000nM
T21 construct: purchased DiscoverX KINOMEscan

ULK3 = biological target: T22, ULK3 (Homo sapiens, UniProt Q6PHR2); experiment: KINOMEscan; assay type: binding; conditions: read-out: %Ctrl @ 10000nM
T22 construct: DNA label for qPCR (T7 phage fusion or DNA tag); purchased DiscoverX scanMAX; host or cells: E. coli BL21-derived (T7 phage) or HEK-293

[2] = biological target: T23, RSK1(Kin.Dom.2-C-terminal) (Homo sapiens, UniProt Q15418); experiment: KINOMEscan; assay type: binding; conditions: read-out: %Ctrl @ 10000nM
T23 construct: RSK1(Kin.Dom.2-C-terminal); purchased DiscoverX KINOMEscan

CSF1R-autoinhibited = biological target: T24, CSF1R-autoinhibited (Homo sapiens, UniProt P07333); experiment: KINOMEscan; assay type: binding; conditions: read-out: %Ctrl @ 10000nM
T24 construct: purchased DiscoverX KINOMEscan
T24 sequence (P07333 539-972 limits assumed): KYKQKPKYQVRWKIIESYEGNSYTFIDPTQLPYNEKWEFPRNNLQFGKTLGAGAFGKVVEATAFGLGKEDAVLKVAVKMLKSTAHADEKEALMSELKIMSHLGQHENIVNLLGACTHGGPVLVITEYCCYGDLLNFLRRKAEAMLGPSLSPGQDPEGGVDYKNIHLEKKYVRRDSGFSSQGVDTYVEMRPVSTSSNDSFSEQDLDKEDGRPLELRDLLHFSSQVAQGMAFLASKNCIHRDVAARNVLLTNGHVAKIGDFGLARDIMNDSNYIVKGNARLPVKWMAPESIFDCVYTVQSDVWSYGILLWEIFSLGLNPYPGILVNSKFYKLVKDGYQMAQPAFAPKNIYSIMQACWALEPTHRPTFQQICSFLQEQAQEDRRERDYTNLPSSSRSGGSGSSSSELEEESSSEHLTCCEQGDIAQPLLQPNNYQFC

PIK3CA = biological target: T25, PIK3CA (Homo sapiens, UniProt P42336); experiment: KINOMEscan; assay type: binding; conditions: read-out: %Ctrl @ 10000nM
T25 construct: purchased DiscoverX KINOMEscan

ITK = biological target: T26, ITK (Homo sapiens, UniProt Q08881); experiment: KINOMEscan; assay type: binding; conditions: read-out: %Ctrl @ 10000nM
T26 construct: purchased DiscoverX KINOMEscan

BMPR2 = biological target: T27, BMPR2 (Homo sapiens, UniProt Q13873); experiment: KINOMEscan; assay type: binding; conditions: read-out: %Ctrl @ 10000nM
T27 construct: purchased DiscoverX KINOMEscan

FLT1 = biological target: T28, FLT1 (Homo sapiens, UniProt P17948); experiment: KINOMEscan; assay type: binding; conditions: read-out: %Ctrl @ 10000nM
T28 construct: purchased DiscoverX KINOMEscan
T28 sequence (P17948 27-1338): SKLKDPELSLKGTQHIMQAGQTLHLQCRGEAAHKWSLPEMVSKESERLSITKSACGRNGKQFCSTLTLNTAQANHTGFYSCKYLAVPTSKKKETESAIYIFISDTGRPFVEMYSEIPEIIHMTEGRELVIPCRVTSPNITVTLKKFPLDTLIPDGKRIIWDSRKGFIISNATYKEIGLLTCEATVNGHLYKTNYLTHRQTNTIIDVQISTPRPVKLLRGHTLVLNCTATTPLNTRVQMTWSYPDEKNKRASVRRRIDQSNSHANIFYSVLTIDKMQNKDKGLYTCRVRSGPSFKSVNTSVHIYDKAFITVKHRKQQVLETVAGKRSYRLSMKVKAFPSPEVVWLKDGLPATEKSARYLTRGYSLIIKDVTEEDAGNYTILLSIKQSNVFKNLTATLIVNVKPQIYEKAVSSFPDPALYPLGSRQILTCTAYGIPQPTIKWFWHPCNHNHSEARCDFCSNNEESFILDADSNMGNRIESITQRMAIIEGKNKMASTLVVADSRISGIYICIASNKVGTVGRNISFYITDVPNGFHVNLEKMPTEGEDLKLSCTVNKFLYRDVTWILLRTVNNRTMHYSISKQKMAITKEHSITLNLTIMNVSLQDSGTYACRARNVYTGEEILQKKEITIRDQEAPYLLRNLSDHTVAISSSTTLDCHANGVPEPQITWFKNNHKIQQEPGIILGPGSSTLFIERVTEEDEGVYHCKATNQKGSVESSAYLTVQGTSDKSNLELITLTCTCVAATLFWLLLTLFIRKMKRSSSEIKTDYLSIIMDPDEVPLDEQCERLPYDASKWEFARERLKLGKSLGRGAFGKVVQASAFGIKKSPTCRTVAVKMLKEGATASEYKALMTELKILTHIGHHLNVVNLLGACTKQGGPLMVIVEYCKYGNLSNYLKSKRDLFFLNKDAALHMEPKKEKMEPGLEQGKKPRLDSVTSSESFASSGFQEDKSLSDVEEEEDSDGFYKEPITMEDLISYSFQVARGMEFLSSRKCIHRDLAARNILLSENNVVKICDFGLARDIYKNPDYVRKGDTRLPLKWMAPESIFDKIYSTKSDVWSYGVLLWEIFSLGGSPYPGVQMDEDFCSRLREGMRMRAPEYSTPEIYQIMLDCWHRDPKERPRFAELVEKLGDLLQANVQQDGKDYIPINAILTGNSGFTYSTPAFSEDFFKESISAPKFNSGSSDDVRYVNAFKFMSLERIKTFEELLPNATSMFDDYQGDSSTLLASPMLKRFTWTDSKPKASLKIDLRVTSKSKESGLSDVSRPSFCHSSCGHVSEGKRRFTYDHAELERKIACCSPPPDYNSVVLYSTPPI

PDGFRA = biological target: T29, PDGFRA (Homo sapiens, UniProt P16234); experiment: KINOMEscan; assay type: binding; conditions: read-out: %Ctrl @ 10000nM
T29 construct: purchased DiscoverX KINOMEscan

PRKR = biological target: T30, PRKR (Homo sapiens, UniProt P19525); experiment: KINOMEscan; assay type: binding; conditions: read-out: %Ctrl @ 10000nM
T30 construct: purchased DiscoverX KINOMEscan

PIK3CA(E545K) = biological target: T31, PIK3CA(E545K) (Homo sapiens, UniProt P42336, E545K); experiment: KINOMEscan; assay type: binding; conditions: read-out: %Ctrl @ 10000nM
T31 construct: purchased DiscoverX KINOMEscan

AURKA = biological target: T32, AURKA (Homo sapiens, UniProt O14965); experiment: KINOMEscan; assay type: binding; conditions: read-out: %Ctrl @ 10000nM
T32 construct: purchased DiscoverX KINOMEscan

MYO3B = biological target: T33, MYO3B (Homo sapiens, UniProt Q8WXR4); experiment: KINOMEscan; assay type: binding; conditions: read-out: %Ctrl @ 10000nM
T33 construct: purchased DiscoverX KINOMEscan

YANK3 = biological target: T34, YANK3 (Homo sapiens, UniProt Q86UX6); experiment: KINOMEscan; assay type: binding; conditions: read-out: %Ctrl @ 10000nM
T34 construct: purchased DiscoverX scanMAX; host or cells: E. coli BL21-derived host (T7 phage) or HEK-293

BRSK1 = biological target: T35, BRSK1 (Homo sapiens, UniProt Q8TDC3); experiment: KINOMEscan; assay type: binding; conditions: read-out: %Ctrl @ 10000nM
T35 construct: purchased DiscoverX KINOMEscan

LTK = biological target: T36, LTK (Homo sapiens, UniProt P29376); experiment: KINOMEscan; assay type: binding; conditions: read-out: %Ctrl @ 10000nM
T36 construct: purchased DiscoverX KINOMEscan

RIOK2 = biological target: T37, RIOK2 (Homo sapiens, UniProt Q9BVS4); experiment: KINOMEscan; assay type: binding; conditions: read-out: %Ctrl @ 10000nM
T37 construct: purchased DiscoverX KINOMEscan
T37 sequence (Q9BVS4 whole entry): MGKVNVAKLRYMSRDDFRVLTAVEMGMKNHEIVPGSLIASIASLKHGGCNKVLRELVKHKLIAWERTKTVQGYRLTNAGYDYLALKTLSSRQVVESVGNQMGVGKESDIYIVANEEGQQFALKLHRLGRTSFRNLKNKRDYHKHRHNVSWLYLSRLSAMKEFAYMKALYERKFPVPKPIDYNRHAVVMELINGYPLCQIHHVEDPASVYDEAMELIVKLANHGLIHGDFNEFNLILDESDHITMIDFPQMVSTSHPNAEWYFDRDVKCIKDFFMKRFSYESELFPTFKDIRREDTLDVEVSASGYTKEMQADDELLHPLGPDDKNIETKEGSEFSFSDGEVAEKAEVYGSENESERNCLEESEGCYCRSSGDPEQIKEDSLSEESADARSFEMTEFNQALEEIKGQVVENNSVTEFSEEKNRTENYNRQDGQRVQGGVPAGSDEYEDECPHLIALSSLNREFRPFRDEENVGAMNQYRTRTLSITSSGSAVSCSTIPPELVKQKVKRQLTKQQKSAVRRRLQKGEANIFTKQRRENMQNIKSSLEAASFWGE

ALK(C1156Y) = biological target: T38, ALK(C1156Y) (Homo sapiens, UniProt Q9UM73, C1156Y); experiment: KINOMEscan; assay type: binding; conditions: read-out: %Ctrl @ 10000nM
T38 construct: purchased DiscoverX KINOMEscan
T38 sequence (Q9UM73 19-1620 C1156Y): as the sequence (Q9UM73 19-1620 L1196M) above, with C1138Y, M1178L counted along it

[3] = 10000 nM, 403 non-mutant kinases

T1 sequence (P37173 23-567): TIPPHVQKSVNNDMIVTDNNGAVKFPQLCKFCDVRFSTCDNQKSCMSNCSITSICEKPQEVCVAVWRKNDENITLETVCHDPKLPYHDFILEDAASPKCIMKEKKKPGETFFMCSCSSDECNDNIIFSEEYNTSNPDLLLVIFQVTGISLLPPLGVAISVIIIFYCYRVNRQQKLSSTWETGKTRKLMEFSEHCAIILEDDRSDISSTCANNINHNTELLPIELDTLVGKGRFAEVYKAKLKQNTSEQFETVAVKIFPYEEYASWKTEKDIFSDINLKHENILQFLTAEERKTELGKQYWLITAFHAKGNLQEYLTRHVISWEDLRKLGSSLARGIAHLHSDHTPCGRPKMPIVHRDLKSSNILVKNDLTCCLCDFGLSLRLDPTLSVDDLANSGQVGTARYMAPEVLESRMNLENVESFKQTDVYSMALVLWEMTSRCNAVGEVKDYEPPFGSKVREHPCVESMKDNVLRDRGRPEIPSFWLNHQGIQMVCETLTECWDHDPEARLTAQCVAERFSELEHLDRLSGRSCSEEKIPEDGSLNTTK

CC(C)c1ccc(CC(=O)N2CCN(c3ccc(C#N)nn3)CC2)cc1 [PZ-2891, 6-(4-(2-(4-isopropylphenyl)acetyl)piperazin-1-yl)pyridazine-3-carbonitrile]
remaining binding at 10 µM (TGFBR2): 98% | remaining binding at 10 µM (HASPIN): 85% | remaining binding at 10 µM (NLK): 94% | remaining binding at 10 µM (MELK): 75% | remaining binding at 10 µM (PKAC-alpha): 87% | remaining binding at 10 µM (FES): 94% | inhibitory activity in screen of 468 kinases (468 human kinases; 10 μM): did not exhibit off-target inhibition; also recorded: did not have significant inhibitory activity | Number of Hits S(1) (468 human kinases; [3]): 1 | Number of Hits S(10) (468 human kinases; [3]): 2 | Number of Hits S(35) (468 human kinases; [3]): 2 | remaining binding at 10 µM (MET(M1250T)): 98% | remaining binding at 10 µM (ACVR2B): 100% | remaining binding at 10 µM (IKK-beta): 100% | remaining binding at 10 µM [1]: 94% | remaining binding at 10 µM (ARK5): 94% | remaining binding at 10 µM (SLK): 93% | remaining binding at 10 µM (CDK4-cyclinD1): 100% | remaining binding at 10 µM (MYLK2): 98% | remaining binding at 10 µM (TNK2): 98% | remaining binding at 10 µM (PKNB(M.tuberculosis)): 74% | remaining binding at 10 µM (ALK(L1196M)): 73% | remaining binding at 10 µM (RET): 74% | remaining binding at 10 µM (PAK6): 100% | remaining binding at 10 µM (STK35): 0.2% | remaining binding at 10 µM (LRRK2): 100% | remaining binding at 10 µM (ULK3): 89% | remaining binding at 10 µM [2]: 64% | remaining binding at 10 µM (CSF1R-autoinhibited): 93% | remaining binding at 10 µM (PIK3CA): 95% | remaining binding at 10 µM (ITK): 89% | remaining binding at 10 µM (BMPR2): 87% | remaining binding at 10 µM (FLT1): 100% | remaining binding at 10 µM (PDGFRA): 70% | remaining binding at 10 µM (PRKR): 100% | remaining binding at 10 µM (PIK3CA(E545K)): 65% | remaining binding at 10 µM (AURKA): 75% | remaining binding at 10 µM (MYO3B): 88% | remaining binding at 10 µM (YANK3): 84% | remaining binding at 10 µM (BRSK1): 75% | remaining binding at 10 µM (LTK): 75% | remaining binding at 10 µM (RIOK2): 86% | solubility (Solubility at pH 7.4): 23 µM (≈ 8.04 µg/mL) | remaining binding at 10 µM (ALK(C1156Y)): 74%
